Experiments:
erythropoietin = test: Erythropoietin production in vivo in mice, oral administration for 7 days; design: species or system mouse; details: 7 consecutive days, plasma 24 hours after final administration, vs corn oil, DMSO+corn oil or no administration
Description: A mixed solution (200 μl) of each of 4 types of compounds (compounds #4, 5, 21, and 35) (10 mg/100 μl of DMSO) (10 μl) and corn oil (190 μl) was prepared. This mixed solution (200 μl) was orally administered to each mouse (C57BL/6N 8 W, male, 21-25 g) between 15:00 to 18:00 every day using a sonde. This administration was carried out for 7 consecutive days. Mice orally given corn oil or DMSO and corn oil as well as non-administered mice were used as controls.
24 hours after the final administration, each mouse was cervically dislocated, and 500 μl of blood was collected from the heart. Then, an anticoagulant (10 μl of heparin) was added thereto, and the resulting blood was centrifuged (12000 rpm×20 min, 4° C.) to isolate plasma. The plasma concentration […] of erythropoietin was measured using a kit (Quantikine Mouse/Rat Epo Immunoassay, manufactured by R&D Systems, Inc.).

HIF-α = HIF-α concentration in Hep3B cells (Total HIF-1α Cell-Based ELISA); design: species or system human; details: compound 10 μM, 20% O2, 24 hours
Description: The Hep3B cells were seeded at 1×10^4 cells/well to a 24-well cell culture plate and then cultured under normal oxygen (20% O2) for 24 hours. Each of 3 types of compounds (compounds #4, 21, and 35) was mixed at a concentration of 10 μM into RPMI1640 common medium 1. After further culture under normal oxygen (20% O2) for 24 hours, the concentration of HIF-α produced in the medium was measured using Total HIF-1 α Cell-Based ELISA Kit (manufactured by R&D Systems, Inc.). Hep3B cells cultured in the absence of the compound (DMSO added [1%]) (“Control” of FIG. 5) were used as a negative control. Hep3B cells cultured in the presence of HIF activators (FG-4592 [10 μM], DMOG [10 μM], and ciclopirox[10 μM]) (“FG”, “DMOG”, and “Ciclo”, respectively, of FIG. 5) were used as positive controls.

[1] = tested on: MCA (middle cerebral artery) occlusion mouse models; test: Cerebral ischemic injury, MCA occlusion mouse model (TTC staining); assay type: in vivo; details: 40 mg/kg intraperitoneal 4 hours before ischemia, 24 hours after reperfusion, vs DMSO, n=1
Description: Two types of compounds (compounds #4 and 35) (40 mg/kg of mouse body weight) were each intraperitoneally administered to a mouse 4 hours before ischemia (n=1). A vehicle (DMSO) was administered to a control (n=1). Anesthesia was induced in each mouse with 4% halothane and oxygen and maintained by the intraperitoneal administration of ketamine (40 mg/kg) and xylazine (4 mg/kg) at 30-minute intervals. After the induction of systemic anesthesia, bifurcation of the common carotid artery was exposed under a microscope. A 6-0 nylon thread having a silicon-coated tip was inserted from the internal carotid artery toward the central side so that its tip reached the anterior communicating artery. The common carotid artery was further ligated to block blood flow into the middle cerebral artery. After the ischemic burden for 30 minutes, the nylon thread was removed so that the ligated common carotid artery was released to induce reperfusion.
24 hours after the reperfusion, each mouse was cervically dislocated and then decapitated to excise the brain. Five coronal sections of the cerebrum having a thickness of 2 mm were prepared from the boundary between the cerebrum and the cerebellum. The coronal sections of the cerebrum were stained with TCC through a reaction at 37° C. for 20 minutes with a TTC solution diluted to 1.5% with PBS. […]

Leigh cells = test: Cell death caused by oxidative stress (BSO) in Leigh syndrome patient fibroblasts; assay type: cell-based, human; details: compound 10 μM, 4 days after BSO treatment
Description: In Examples 2 to 7 and Reference Example 1 below, an erythropoietin-producing human hepatocellular carcinoma cell Hep3B (obtained from ATCC [American Type Culture Collection]) was cultured and maintained under conditions of 5% CO2/20% O2 and 37° C. in an RPMI1640 (manufactured by Life Technologies, Inc./GIBCO) medium containing 100 U/mL penicillin (manufactured by Life Technologies, Inc./GIBCO), 100 μg/mL streptomycin (manufactured by Life Technologies, Inc./GIBCO), and 10% fetal bovine serum (FBS) (manufactured by Life Technologies, Inc./GIBCO) (hereinafter, referred to as “RPMI1640 common medium 1”). In Example 15 below, Leigh syndrome patients were subjected to skin biopsy to obtain skin fibroblast cells, which were then primarily cultured under conditions of 5% CO2/20% O2 and 37° C. in a DMEM low glucose (manufactured by Life Technologies, Inc./GIBCO) medium containing 100 U/mL penicillin (manufactured by Life Technologies, Inc./GIBCO), 100 μg/mL streptomycin (manufactured by Life Technologies, Inc./GIBCO), and 1% FBS (manufactured by Life Technologies, Inc./GIBCO) (hereinafter, referred to as “DMEM low glucose common medium”) to isolate cells (Leigh cells). In Example 13 below, a human kidney-derived cell line HK-2 (obtained from ATCC) was cultured and maintained under conditions of 5% CO2/20% O2 and 37° C. in a DMEM/F12 (manufactured by Life Technologies, Inc./GIBCO) medium containing 100 U/mL penicillin (manufactured by Life Technologies, Inc./GIBCO), 100 μg/mL streptomycin (manufactured by Life Technologies, Inc./GIBCO), and 10% fetal bovine serum (manufactured by Life Technologies, Inc./GIBCO) (hereinafter, referred to as “DMEM/F12 common medium”). In Example 14 below, a rat islet of Langerhans-derived cell line ISN-1e (kindly provided by Hisamitsu Ishihara, Nihon University School of Medicine) was cultured and maintained under conditions of 5% CO2/20% O2 and 37° C. in an RPMI1640 (manufactured by Life Technologies, Inc./GIBCO) medium containing 10 mM HEPES (manufactured by Sigma-Aldrich Corp.), 2 mM glutamine (manufactured by Sigma-Aldrich Corp.), 50 μM β-mercaptoethanol (manufactured by Sigma-Aldrich Corp.), 100 U/mL penicillin (manufactured by Life Technologies, Inc./GIBCO), 100 μg/mL streptomycin (manufactured by Life Technologies, Inc./GIBCO), and 10% FBS (manufactured by Life Technologies, Inc./GIBCO) (hereinafter, referred to as “RPMI1640 common medium 2”).
The Leigh cells were seeded at 4×10^4 cells/well to a 24-well cell culture plate and then cultured for 24 hours. The glutathione synthesis inhibitor BSO (L-buthionine sulphoximine) (manufactured by Sigma-Aldrich Corp.) was mixed at […] into a medium. After culture for 24 hours in the presence of BSO, each of 5 types of compounds (compounds #2, 4, 5, 21, and 35) was mixed at 10 μM into the medium. After culture for 4 days in the presence of these 5 types of compounds, the number of live cells was measured using Cell Counting Kit-8 (manufactured by Dojindo Laboratories) to calculate the survival rate of the cells (“BSO+#2”, “BSO+#4”, “BSO+#5”, “BSO+#21”, and “BSO+#35” of FIG. 17). […]

**Q.** With COc1cc(COc2ccc3[nH]cc(CC(=O)O)c3c2)cc(OC)c1 [compound #35, 5-(3,5-Dimethoxybenzyloxy)-3-indoleacetic acid] as the molecule, how does the “amount of erythropoietin in the mouse blood” value (erythropoietin) read?
**A.** increased

**Q.** And the “HIF-α concentration in the Hep3B cells” value (HIF-α)?
**A.** increase the HIF-α concentration

**Q.** And the “volume of the cerebral infarction site” value [1]?
**A.** decreased

**Q.** What about the “cell death of the Leigh cells by BSO” value (Leigh cells) of the same molecule?
**A.** efficiently suppress the cell death

Reference: US10004718B2, “Erythropoietin expression promoter” (TOHOKU UNIVERSITY, priority 2012, dated 2018)
